Columns and labels:
[1] = test system: mice with cGVHD; assay: Pulmonary function tests (lung resistance, elastance, compliance; forced oscillation technique, Scireq Flexivent); format: in vivo, mouse (B10.BR recipients)
Experimental: (§1) B10.BR recipients were conditioned with cytoxan on days −3 and −2 (120 mg/kg/day i.p.). On day −1, recipients received TBI by x-ray (8.3 Gy). B6 donor BM was T-cell depleted with anti-Thy1.2 mAb followed by rabbit complement. T-cells were purified from spleens by incubation with biotin-labeled anti-CD19, anti-CD11b, anti-CD11c, anti-NK1.1 and anti-γδTCR (eBioscience), followed by strepavidin beads and depletion with magnetic column (StemCell Technologies). On day 0, recipients received 10×10^6 T cell depleted BM cells with or without allogeneic spleen purified T cells (0.075-0.1×106), Weights of individual mice were recorded weekly. Where indicated, recipients in BM and T cell groups were given EZH2 inhibitor (either JQ-EZH2-5 (75 μg/animal/3 times a week) or JQ1 (50 μg/animal/Daily) in 10% Hydroxypropyl-beta-cyclodextrin and DMSO in a 9:1 ratio) or Bcl 79-6 (50 μg/animal/three times a week) in PBS.
(§2) In particular, B10.BR mice were conditioned with 120 mg/Kg of cyclophosphamide on day −3 and −2 and subjected to total body irradiation (830X) on day −1. On Day 0 mice were transplanted with wild type B6 bone marrow with or without splenocytes or purified splenic T cells. Day 28 following transplantation, mice were either given vehicle control or JQ5 (75 mg/Kg 3× a week) until day 56. On Day 60 mice were subjected to forced oscillation technique on the Scireq Flexivent system. Tissues were harvested and analyzed for collagen deposition by trichrome staining, Ig deposition, presence of germinal centers, germinal center B cells, and T follicular helper cells.
as §2, with “Pulmonary function tests were performed on animals treated with Bcl 79-6. The presence of Germinal Center B cells and fibrosis in lungs were also assessed.” for “In particular,”, “Wild Type” for “wild type”, “Bone” for “bone”, “Bcl6 79-6 (50” for “JQ5 (75”, “Daily)” for “3× a week)”, “cells” for “cells,”

[2] = test system: mice with cGVHD; assay: Collagen deposition in the lungs (trichrome staining); format: in vivo, mouse (B10.BR recipients); conditions: for collagen deposition in the lungs vs Vehicle-treated mice: Table 3 experiment, treatment Day 28-56, JQ5 75 mg/Kg 3 days a week, Bcl6 peptidomimetic every day (FIG. 10, 13)
Experimental: as §1, with “9:[…])” for “9:1 ratio) or Bcl 79-6 (50 μg/animal/three times a week)”
as §2
as §2, with “Pulmonary function tests were performed on animals treated with Bcl 79-6. The presence of Germinal Center B cells and fibrosis in lungs were also assessed.” for “In particular,”, “Wild Type” for “wild type”, “Bone” for “bone”, “Bcl6 79-6 (50” for “JQ5 (75”, “Daily)” for “3× a week)”, “cells” for “cells,”

[3] = test system: mice with cGVHD; assay: Pulmonary function tests (lung resistance, elastance, compliance; forced oscillation technique, Scireq Flexivent); format: in vivo, mouse (B10.BR recipients); remark: listed apart in the source
[4] = test system: mice with cGVHD; format: in vivo; conditions: for survival after 60 days: mice given BM and T-cells, treatment began 28 days post-transplant (Day 28-56), JQ5 or UNC1999 75 mg/Kg 3 days a week, Bcl6 peptidomimetic every day (Table 3, FIG. 8)
Experimental: as §1, with “([…])” for “(75 μg/animal/3 times a week)”, “9:[…])” for “9:1 ratio) or Bcl 79-6 (50 μg/animal/three times a week)”
Animals in this experiment were transplanted with wild-type BM and T-cells and then treated with either Vehicle, EZH2 inhibitor (JQ5 or UNC1999) or Bcl6 inhibitor. Administration of UNC1999 was toxic, resulting in less than 40% survival 63 days post-transplant. (FIG. 8).

[5] = test system: germinal center B cells; assay: Germinal center B cells in cGVHD mice; format: in vivo, mouse (B10.BR recipients); conditions: for germinal center B cells in the spleens: Table 3 experiment, Bcl6 peptidomimetic every day, Day 28-56 (FIG. 12)
Experimental: as §1, with “9:[…])” for “9:1 ratio) or Bcl 79-6 (50 μg/animal/three times a week)”
as §2
Pulmonary function tests were performed on animals treated with Bcl 79-6. The presence of Germinal Center B cells and fibrosis in lungs were also assessed. B10.BR mice were conditioned with 120 mg/Kg of cyclophosphamide on day −3 and −2 and subjected to total body irradiation (830X) on day −1. […] Tissues were harvested and analyzed for collagen deposition by trichrome staining, Ig deposition, presence of germinal centers, germinal center B cells and T follicular helper cells.

[6] = additional experiments (not shown), JQ1 treatment
[7] = Table 6 experiment, Bcl6 79-6 50 mg/Kg Daily, day 28 until day 56 (FIG. 19), 50 mg/kg
[8] = Table 6 experiment, Bcl6 79-6 50 mg/Kg Daily, day 28 until day 56, measured Day 60 (FIG. 19)

SMILES	compliance in pulmonary function tests vs vehicle-treated control animals [1, 6]	elastance in pulmonary function tests vs vehicle-treated control animals [1, 6]	resistance in pulmonary function tests vs vehicle-treated control animals [1, 6]	collagen deposition in the lungs vs Vehicle-treated control mice ([2]; Table 4 experiment, JQ1 50 mg/Kg Daily, Day 28-56 (FIG. 15), 50 mg/kg)	pulmonary function vs Vehicle-treated control mice ([3]; Table 4 experiment, JQ1 50 mg/Kg Daily, Day 28-56 (FIG. 14), 50 mg/kg)	survival after 60 days [4]	pulmonary function (lung resistance, elastance and compliance) vs Vehicle-treated mice ([1]; Table 3 experiment, treatment Day 28-56, JQ5 75 mg/Kg 3 days a week, Bcl6 peptidomimetic every day (FIG. 9, 11))	collagen deposition in the lungs vs Vehicle-treated mice [2]	collagen deposition in the lungs vs Vehicle-treated mice ([2]; listed as Bcl6 79-6)	collagen in Trichrome staining (lungs) [2, 7]	germinal center B cells in the spleens [5]	germinal center B cells in the spleens ([5]; listed as Bcl6 79-6)	Germinal Center B cells [5, 7]	lung compliance [3, 8]	lung elastance [3, 8]	lung resistance [3, 8]	pulmonary function [3, 8]	survival 63 days post-transplant ([4]; mice given wild-type BM and T-cells, 75 mg/KG UNC1999 3 days a week, Day 28-56 (Table 3, FIG. 8))
Cc1sc2c(c1C)C(c1ccc(Cl)cc1)=N[C@@H](CC(=O)OC(C)(C)C)c1nnc(C)n1-2 [JQ1]	significantly increased	decreased	decreased	decreased collagen deposition	improves pulmonary function	–	–	–	–	–	–	–	–	–	–	–	–	–
O=C(O)CC(C(=O)O)N1C(=O)/C(=C2/C(=O)Nc3ccc(Br)cc32)SC1=S (stereo not shown) [79-6]	–	–	–	–	–	100%	improved pulmonary function	decreased	decreased collagen deposition	decreased collagen	reduction	decreased germinal center B cells	decreased Germinal Center B cells	increase	decrease	decrease	Restored pulmonary function	–
CCCc1cc(C)[nH]c(=O)c1CNC(=O)c1cc(-c2ccc(N3CCN(C(C)C)CC3)nc2)cc2c1cnn2C(C)C [UNC1999]	–	–	–	–	–	< 40%	–	–	–	–	–	–	–	–	–	–	–	less than 40%

Reference: patent publication US20190000860A1, “USE OF COMPOSITIONS MODULATING CHROMATIN STRUCTURE FOR GRAFT VERSUS HOST DISEASE (GVHD)” (Dana-Farber Cancer Institute, Inc., priority 2014, published 2019)
